# Measurements as given in patent US12012385B1, “4,5-bis(4-methoxyphenyl)-1-hexyl-2-phenyl-1H-imidazole as an antimicrobial compound” (KING FAISAL UNIVERSITY, priority 2023, dated 2024).
# Columns and labels:
# [1] = tested on: St. aureus; experiment: Antimicrobial testing, agar dilution method; assay type: cell-based, Staphylococcus aureus; details: after 10, 20, 40 and 60 min at all dilutions 1:100, 1:200, 1:400, 1:800
# Protocol: (§1) The antimicrobial properties of the, 5-bis(4-methoxyphenyl)-1-hexyl-2-phenyl-1H-imidazole was studied by the method of agar dilution. Test solutions of each compound was prepared in concentration of 1% using dimethylformamide as a solvent then they are diluted in physiological solution to obtain the final experimental dilutions 1:100, 1:200, 1:400, 1:800. The effect of these substances are compared with furacillin in a controllable study. The testing microbes used were gram positive bacteria St. aureus, gram negative bacteria E. Coli, Ps. aeruginosa and Candida albicans fungi were taken. The experiments used for this survey were meat-pentonlu agar (EPA) for cultivation of bacteria and Saburo environment for fungi. Each experiment used 1 ml of test solution on each plate 500 min. Add 2 drops of emulsified with microbes feel. All experimental samples were taken from the agar after 10, 20, 40, 60 minutes in the environment on the basis of Patrk planted. Bacteria were cultivated at a temperature of 37° C. for 1 day and the mushroom was kept in a thermostat for […] at a temperature of 28° C. Then the results were checked.
# [2] = tested on: E. Coli; experiment: Antimicrobial testing, agar dilution method; assay type: cell-based, Escherichia coli; details: after 10, 20, 40 and 60 min at all dilutions 1:100, 1:200, 1:400, 1:800
# Protocol: as §1
# [3] = tested on: Ps. aeruginosa; experiment: Antimicrobial testing, agar dilution method; assay type: cell-based, Pseudomonas aeruginosa; details: after 10, 20, 40 and 60 min at all dilutions 1:100, 1:200, 1:400, 1:800
# Protocol: as §1
# [4] = tested on: Candida albicans; experiment: Antimicrobial testing, agar dilution method; assay type: cell-based; details: after 10, 20, 40 and 60 min at all dilutions 1:100, 1:200, 1:400, 1:800
# Protocol: as §1
compound,measurement,setting,value
"CCCCCCn1c(-c2ccccc2)nc(-c2ccc(OC)cc2)c1-c1ccc(OC)cc1 [4,5-bis(4-methoxyphenyl)-1-hexyl-2-phenyl-1H-imidazole]",inhibition activity (in words),[1],higher inhibition activity
same,inhibition activity (in words),[2],higher inhibition activity
same,inhibition activity (in words),[3],higher inhibition activity
same,inhibition activity (in words),[4],higher inhibition activity
same,melting point,,177 to 179 °C
